Laboratory results taken from the NIST ThermoML archive (doi:10.1016/j.fluid.2015.02.018).
± gives the expanded uncertainty stated by the source.

What was measured:
[1] = Molar enthalpy of transition or fusion; details: Crystal; DSC
[2] = DTA; for Normal melting temperature: Crystal

SMILES	Molar enthalpy of transition or fusion [1]	Normal melting temperature [2]	Glass transition temperature ([2]; Glass)
CN1[C@@H](CC(=O)c2ccccc2)CCC[C@H]1C[C@H](O)c1ccccc1.Cl [(-)-lobeline hydrochloride]	18.2 ± 0.382 kcal/mol	193.2 ± 0.4 °C	
COc1ccc2c(c1)c(CC(=O)O)c(C)n2C(=O)c1ccc(Cl)cc1	18 ± 0.359 kcal/mol	160.5 ± 0.4 °C	
OCCN1CCN(CCCN2c3ccccc3Sc3ccc(Cl)cc32)CC1 [perphenazine]	10.8 ± 0.239 kcal/mol	93.7 ± 0.4 °C	18.7 ± 0.4 °C
Cn1c(=O)c2[nH]cnc2n(C)c1=O.Cn1c(=O)c2[nH]cnc2n(C)c1=O.NCCN [aminophylline]	6.19 ± 0.143 kcal/mol	269.1 ± 0.4 °C	
